# Measured values as given in patent US20080103173A1, “Compounds Having Activity At Nk3 Receptor And Uses Thereof In Medicine” (SMITHKLINE BEECHAM CORPORATION, priority 2004, published 2008).
# Molecular target: T1, NK3 receptor (Homo sapiens, UniProt P29371)
# T1 construct: expressed in transfected cells; host or cells: CHO cell lines (plasma membranes)
# T1 sequence (P29371 1-465): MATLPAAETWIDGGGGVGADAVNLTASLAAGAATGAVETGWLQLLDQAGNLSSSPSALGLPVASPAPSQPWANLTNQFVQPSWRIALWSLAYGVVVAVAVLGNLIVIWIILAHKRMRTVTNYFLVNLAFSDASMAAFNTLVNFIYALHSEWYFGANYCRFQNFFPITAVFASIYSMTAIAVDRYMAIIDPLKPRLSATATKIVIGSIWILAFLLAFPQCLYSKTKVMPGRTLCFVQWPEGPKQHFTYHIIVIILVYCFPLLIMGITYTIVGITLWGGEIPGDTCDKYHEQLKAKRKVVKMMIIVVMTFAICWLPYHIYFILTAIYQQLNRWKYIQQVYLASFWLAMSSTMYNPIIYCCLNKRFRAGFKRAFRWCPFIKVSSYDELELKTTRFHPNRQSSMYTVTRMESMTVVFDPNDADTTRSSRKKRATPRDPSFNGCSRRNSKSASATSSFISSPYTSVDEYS
# Assay: NK3 binding affinity, scintillation proximity assay (SPA), 125I [MePhe7]-NKB
# Conditions: membranes from CHO cell lines expressing NK3 receptors; radioligand 125I [MePhe7]-NKB
# Procedure: a) Measurement of NK3 Binding Affinity
# The NK3 binding affinity of the compounds of the invention was determined using the following scintillation proximity assay (SPA) (see H. M. Sarau et al, J. Pharmacol. Experimental Therapeutics 1997, 281(3), 1303-1311; H. M. Sarau et al, J. Pharmacol. Experimental Therapeutics 2000, 295(1), 373-381; G. A. M. Giardina et al J. Med. Chem 1999, 42, 1053-1065). Polystyrene Leadseeker WGA-SPA beads (Amersham Biosciences) were mixed with plasma membrane prepared from CHO cell lines expressing NK3 receptors in a bead/membrane ratio of 20:1 (w/w) in assay buffer (75 mM Tris pH 7.8, 75mM NaCl, 4 mM MnCl2, 1 mM EDTA, 0.05% Chaps, 1 mM PMSF). The mixture was placed on ice for 20 minutes to allow the formation of membrane/bead complex before BSA was added to a final concentration of 1%. After another 20 minutes incubation on ice, the bead/membrane complex was washed twice and suspended in assay buffer. ^125I [MePhe7]-NKB was then added to the bead/membrane complex. […] After 2-3 hours incubation at room temperature with shaking, the plates were spun for 2 min at 1100 rpm and measured in Viewlux imager (PerkinElmer) for 5 minutes with a 618-nm filter. Inhibition of the radioactive ligand binding to the NK3 receptor was measured by the reduction of signal. pKi was calculated using Kd of the radioactive ligand determined in a separate experiment.
smiles,measurement,value
"O=C(N[C@H](c1cccc(F)c1)C1CC1)c1c(CN2CCCC2=O)c(-c2ccccc2)nc2ccccc12 [Example 1, N-[(S)-Cyclopropyl(3-fluorophenyl)methyl]-3-[(2-oxo-1-pyrrolidinyl)methyl]-2-phenyl-4-quinolinecarboxamide]",Ki,3.16 nM
